Compound: CC(C)(C)c1nc(-c2cccc(NS(=O)(=O)c3c(F)cccc3F)c2F)c(-c2ccnc(N)n2)s1 [Dabrafenib] + Cc1cc(Nc2cc(N3CCN(C)CC3)nc(Sc3ccc(NC(=O)C4CC4)cc3)n2)n[nH]1 [Tozasertib] (partner 0.1 µM)
Test: relative viability (nuclei count vs DMSO), 5 days (fraction); higher = more cells survive
Settings: first compound 0.3 µM
Procedure, shortened: (§1)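 For relative viability, nuclei counts in treated wells were divided by those in vehicle wells. Lung cancer cell lines had been pin-tool dosed in 1536-well plates the day after seeding and cultured for 5 days, then fixed and stained in one step (final 0.05% Triton X-100, 1% formaldehyde, 1 ug/ml Hoechst) and imaged at 4×. Doses were one drug alone or a fixed anchor-drug dose plus five library-drug doses (not always all listed) in √10 steps, and values are duplicate-plate medians.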

Cell Line	relative viability
LXF-289	0.187
NCI-H358	0.0813
LC-2-ad	0.429
201T	1.04
NCI-H1666	0.672
NCI-H322M	0.436
HARA	0.113
NCI-H1395	0.648

Compound: CC(C)(C)c1nc(-c2cccc(NS(=O)(=O)c3c(F)cccc3F)c2F)c(-c2ccnc(N)n2)s1 [Dabrafenib] + NC(=O)Nc1cc(-c2cccc(F)c2)sc1C(=O)N[C@H]1CCCNC1 [AZD7762] (partner 0.2 µM)
Test: as above
Settings: first compound 0.003 µM
Procedure, shortened: as §1

Cell Line	relative viability
NCI-H460	0.282
H3255	0.791
NCI-H838	0.993
NCI-H3122	0.508
NCI-H1915	0.712
NCI-H727	0.472
NCI-H1975	0.481
LK-2	0.125
HCC-366	0.0302
NCI-H1993	0.555
LXF-289	0.162
LC-2-ad	0.654
201T	0.28
NCI-H1666	0.592

Same assay, conditions: first compound 0.009487 µM

Cell Line	relative viability
NCI-H460	0.616
H3255	0.94
NCI-H1793	0.489
NCI-H23	0.207
NCI-H838	0.885
EPLC-272H	0.283
NCI-H3122	1.03
NCI-H1915	0.653
NCI-H727	0.459
NCI-H1975	0.788
LK-2	0.449
HCC-366	0.288
NCI-H2087	1.24
LCLC-97TM1	0.239
NCI-H2405	0.805
NCI-H1993	0.968
PC-3 [JPC-3]	1.02
NCI-H2347	0.63
LXF-289	1.13
NCI-H358	0.866
LC-2-ad	0.945
201T	0.711
NCI-H1666	0.879
NCI-H322M	0.613
HARA	0.392
NCI-H1395	0.385

Same assay, conditions: first compound 0.03 µM

Cell Line	relative viability
NCI-H460	0.546
H3255	0.908
NCI-H23	0.205
NCI-H838	0.91
EPLC-272H	0.174
NCI-H3122	1.06
NCI-H1915	0.368
NCI-H1975	0.734
HCC-366	0.29
NCI-H2087	1.11
LCLC-97TM1	0.25
NCI-H2405	0.592
NCI-H1993	0.792
PC-3 [JPC-3]	0.857
NCI-H2347	0.562
LXF-289	1.22
NCI-H358	0.6
LC-2-ad	0.87
201T	0.59
NCI-H1666	0.742
HARA	0.46
NCI-H1395	0.402

Same assay, conditions: first compound 0.09487 µM

Cell Line	relative viability
NCI-H460	0.556
H3255	0.758
NCI-H1793	0.493
NCI-H23	0.254
NCI-H838	0.889
EPLC-272H	0.207
NCI-H3122	0.986
NCI-H1915	0.268
NCI-H727	0.492
NCI-H1975	0.505
LK-2	0.433
HCC-366	0.309
NCI-H2087	0.928
LCLC-97TM1	0.129
NCI-H2405	0.597
NCI-H1993	0.716
PC-3 [JPC-3]	1.02
NCI-H2347	0.605
LXF-289	1.06
NCI-H358	0.637
LC-2-ad	0.92
201T	0.461
NCI-H1666	0.778
NCI-H322M	0.619
HARA	0.368
NCI-H1395	0.424

Same assay, conditions: first compound 0.3 µM

Cell Line	relative viability
NCI-H460	0.493
H3255	1.16
NCI-H1793	0.434
NCI-H23	0.217
NCI-H838	0.89
EPLC-272H	0.155
NCI-H3122	1.07
NCI-H1915	0.282
NCI-H727	0.669
NCI-H1975	0.78
LK-2	0.467
HCC-366	0.16
NCI-H2087	1
LCLC-97TM1	0.224
NCI-H2405	0.598
NCI-H1993	0.826

From the supplement of paper PMC10307832
